{"source": "paper PMC10182956", "about": "(Archives of Toxicology, 2023)", "key": {"HepaRG cells [1]": {"test_system": "HepaRG cells", "test": "Cell viability assessment (WST-1 assay)", "type": "cell-based, human", "conditions": "95% CI in brackets", "from_the_text": "Undifferentiated HepaRG cells were purchased from Biopredic international (Saint Grégoire, France). HepaRG cells have unlimited growth capacity and phenotypic stability, stable enzymatic activities over 4 weeks of cultivation, and similar metabolic function to primary human hepatocytes, and also avoid limitations of primary cells such as donor variability and phenotypic instability (Aninat et al. [2006]; Guillouzo et al. [2007]; Lambert et al. [2009]; Lübberstedt et al. [2011]; Andersson et al. [2012]). The line contains two cell types, hepatocyte-like and cholangiocyte-like cells (Parent et al. [2004]), which allows for elucidation of cell-specific toxicity (Jossé et al. [2008]). Cells were seeded at a density of approximately 27′000 cells/cm^2 into a 150 × 25 mm petri dish and were cultured for 2 weeks in William’s E medium (cat. nr.: 32,551,020, ThermoFisher Scientific, Massachusetts, USA) supplemented with 2 mM glutamine, 10% (v/v) fetal bovine serum (FBS) good forte (cat. nr.: P40-47,500, PAN-Biotech, Aidenbach, Germany), 100 U/ml penicillin and 100 µg/ml streptomycin (cat. nr.: 15,140,122, ThermoFisher Scientific, Massachusetts, USA), 5 µg/ml Gibco recombinant AOF insulin (cat. nr.: A11382II, ThermoFisher Scientific, Massachusetts, USA) and 50 µM hydrocortisone hemisuccinate (cat. nr.: H4881, Sigma-Aldrich, St. Louis, USA) at 37 °C and 5% CO2. Differentiation was induced by culturing the cells for another 2 weeks in the above mentioned medium supplemented with 1.7% DMSO. After 4 weeks in culture, differentiated HepaRG cells were seeded at a high density of approximately 227′000 cells/cm^2 (72,000 cells/well with 100 µl per well) into black 96-well plates with a clear bottom (cat.nr.: 3603, Corning, New York, USA) and maintained for 10 days. After 10 days, cells were first adapted to treatment medium (culture medium containing 0.5% DMSO and 2% FBS) for 48 h and then used for cell viability and high-content imaging analysis.\nCell viability was analyzed using the WST-1 assay which is based on the measurement of mitochondrial dehydrogenase activity (cat. nr: ab155902, Abcam, Cambridge, UK). HepaRG cells were exposed to chemicals at defined concentrations for 24 h. Triton X-100 (0.01%) was a positive control. One hour before the end of incubation period, 10 µl of WST-1 reagent was added to each well, quickly mixed by shaking the plate, and returned to the cell culture incubator (37 °C, 5% CO2). After 1 h, absorbance was measured (450 nm, reference wavelength 620 nm) using a plate reader (Infinite M200 Pro, Tecan group, Männerdorf, Switzerland). Absorbance was then subtracted from the reference wavelength, corrected for background by subtracting values measured without cells, and then normalized to the solvent control, which was set to 100%. Dose–response data were fitted using drc package (Version 3.0.1) (Ritz et al. [2015]) in R 3.6.1. Data were from at least 3 independent experiments with 6 technical replicates per condition."}, "HepaRG cells [2]": {"test_system": "HepaRG cells", "test": "High-content imaging assay: lipid accumulation (Bodipy lipid droplets)", "type": "cell-based", "conditions": "HepaRG 24 h; for Lipid accumulation response (in words): population level, threshold ± 2 standard deviations of the response at the two lowest concentrations"}, "HepaRG cells [3]": {"test_system": "HepaRG cells", "conditions": "HepaRG 24 h; for Mitochondrial membrane potential response (in words): population level, threshold ± 2 standard deviations of the response at the two lowest concentrations"}, "HepaRG cells [4]": {"test_system": "HepaRG cells"}, "HepaRG cells [5]": {"test_system": "HepaRG cells", "remark": "listed apart in the source", "experimental": "Cellular responses were quantified using a high-content imaging approach (Fig. 1). Based on cell viability assessment, concentrations below the EC50 level were tested in the high-content imaging assay. After 24 h chemical exposure, live cells were incubated with CellROX, which reflects hydroxyl radi [..."}, "[6]": {"conditions": "ref Aguilar et al. [2009]; D’Apolito et al. [2012]; Li et al. [2009]; cited from earlier work"}, "[7]": {"conditions": "Homo sapiens, WST-1, 24 h exposure, food-related chemicals and pesticides, read-out: EC50 (95% CI) in µM from cell viability assay"}, "[8]": {"conditions": "Homo sapiens, 24 h exposure, reference chemicals, read-out: EC50 µM (95% CI) from cell viability (WST-1)"}}, "note": "Entries after “also recorded” stand apart in the source; their conditions may differ. Like-named read-outs stand apart in the source and are kept apart here."}
{"smiles": "N#Cc1nn(-c2c(Cl)cc(C(F)(F)F)cc2Cl)c(N)c1[S+]([O-])C(F)(F)F", "note": "(stereo not drawn) [Fipronil]", "values": [{"measurement": "EC50", "setting": "HepaRG cells [1]; [7]", "value": 21, "unit": "µM"}]}
{"smiles": "C[C@H](CCC(=O)O)[C@H]1CC[C@H]2[C@@H]3CC[C@@H]4C[C@H](O)CC[C@]4(C)[C@H]3C[C@H](O)[C@]12C", "note": "[Deoxycholic acid]", "values": [{"measurement": "EC50", "setting": "HepaRG cells [1]; [7]", "value": 246, "unit": "µM"}]}
{"smiles": "CC(C)(c1ccc(O)cc1)c1ccc(O)cc1", "note": "[Bisphenol A]", "values": [{"measurement": "Lipid accumulation response (in words)", "setting": "HepaRG cells [2]", "value": "induced significant lipid accumulation"}, {"measurement": "EC50", "setting": "HepaRG cells [1]; [7]", "value": 237, "unit": "µM"}]}
{"smiles": "O=C(CO)[C@@H](O)[C@H](O)[C@H](O)CO", "note": "[Fructose]", "values": [{"measurement": "Lipid accumulation response (in words)", "setting": "HepaRG cells [2]", "value": "did not stimulate lipid accumulation"}, {"measurement": "EC50", "setting": "HepaRG cells [1]; [7]", "value": 6.6, "unit": "µM"}, {"measurement": "Mitochondrial membrane potential response (in words)", "setting": "HepaRG cells [3]", "value": "dose-dependent increase in MMP exceeding the threshold"}]}
{"smiles": "O=S(=O)(c1ccccc1)N(CC(F)(F)F)c1ccc(C(O)(C(F)(F)F)C(F)(F)F)cc1", "note": "[T0901317]", "values": [{"measurement": "Lipid accumulation response (in words)", "setting": "HepaRG cells [2]", "value": "dose-dependently increased and exceeded the threshold"}, {"measurement": "EC50", "setting": "HepaRG cells [1]; 24 h exposure, reference chemicals, read-out: EC50 µM (95% CI) from cell viability (WST-1)", "value": 42.9, "unit": "µM"}, {"measurement": "Mitochondrial membrane potential response (in words)", "setting": "HepaRG cells [3]", "value": "decrease in MMP below the threshold"}, {"measurement": "Concentration at which increase of oxidative stress exceeded the threshold", "setting": "HepaRG cells [4]; HepaRG 24 h", "value": 40, "unit": "µM"}, {"measurement": "Concentration at which increase of number of apoptotic cells (nuclear morphology) exceeded the threshold", "setting": "HepaRG cells [5]; HepaRG 24 h", "value": 40, "unit": "µM"}]}
{"smiles": "O=C([O-])C1=NN(c2ccc(S(=O)(=O)[O-])cc2)C(=O)C1N=Nc1ccc(S(=O)(=O)[O-])cc1.[Na+].[Na+].[Na+]", "note": "(stereo not drawn) [Tartrazine]", "values": [{"measurement": "Lipid accumulation response (in words)", "setting": "HepaRG cells [2]", "value": "induced significant lipid accumulation"}]}
{"smiles": "CC1=CC[C@@H](C(C)(C)O)CC1", "note": "[Alpha-terpineol]", "values": [{"measurement": "EC50", "setting": "HepaRG cells [1]; [7]", "value": 2560, "unit": "µM"}]}
{"smiles": "C=CC1(C)OC(=O)N(c2cc(Cl)cc(Cl)c2)C1=O", "note": "(stereo not drawn) [Vinclozolin]", "values": [{"measurement": "Lipid accumulation response (in words)", "setting": "HepaRG cells [2]", "value": "induced significant lipid accumulation"}]}
{"smiles": "CCOC(=O)[C@@]1(CCCCCCOc2ccc(Cl)cc2)CO1", "note": "[etomoxir]", "values": [{"measurement": "Lipid accumulation response (in words)", "setting": "HepaRG cells [2]", "value": "neither induced lipid accumulation; also recorded: did not give rise to lipid accumulation"}, {"measurement": "EC50", "setting": "HepaRG cells [1]; [8]", "value": 144, "unit": "µM"}, {"measurement": "Concentration at which increase of MMP (hyperpolarization) was observed / exceeded the threshold", "setting": "HepaRG cells [3]", "value": 36, "unit": "µM"}, {"measurement": "Mitochondrial membrane potential response (in words)", "setting": "HepaRG cells [3]", "value": "increased MMP"}, {"measurement": "Oxidative stress response (in words)", "setting": "HepaRG cells [4]; HepaRG 24 h, population level, threshold ± 2 standard deviations of the response at the two lowest concentrations", "value": "neither induced lipid accumulation, had any consistent impact on oxidative stress"}]}
{"smiles": "Cc1cccc(C)c1N(Cn1cccn1)C(=O)CCl", "note": "[Metazachlor]", "values": [{"measurement": "Lipid accumulation response (in words)", "setting": "HepaRG cells [2]", "value": "induced significant lipid accumulation"}, {"measurement": "EC50", "setting": "HepaRG cells [1]; [7]", "value": 183, "unit": "µM"}]}
{"smiles": "Cn1c(=O)c2c(ncn2C)n(C)c1=O", "note": "[caffeine]", "values": [{"measurement": "Lipid accumulation response (in words)", "setting": "HepaRG cells [2]", "value": "decrease of lipid accumulation that exceeded the threshold"}, {"measurement": "Concentration at which decrease of lipid accumulation exceeded the threshold", "setting": "HepaRG cells [2]; only at the highest concentration", "value": 5000, "unit": "µM"}, {"measurement": "EC50", "setting": "HepaRG cells [1]; [8]", "value": 6530, "unit": "µM"}]}
{"smiles": "O=c1[nH]c(=O)c2[nH]c(=O)[nH]c2[nH]1", "note": "[Uric acid]", "values": [{"measurement": "Lipid accumulation response (in words)", "setting": "HepaRG cells [2]", "value": "induced significant lipid accumulation"}, {"measurement": "EC (BMC, 1 SD from control)", "setting": "HepaRG cells [2]; Homo sapiens, lipid accumulation, BMR one standard deviation from control mean, Table 1, read-out: LA: Benchmark concentration (µM) per imaging endpoint calculated with BMDS software", "value": 591, "unit": "µM"}, {"measurement": "In vivo blood plasma conc.", "setting": "[6]", "value": "217 to 402", "unit": "µM"}, {"measurement": "OED (mg/kg BW/day)", "setting": "IVIVE derived median with 95% CI, from BMC of positive imaging endpoint, oral, daily dosing, Table 1", "value": "87.3 (95% CI 67.3–150.6) mg/kg BW/day"}]}
{"smiles": "N#CC(C#N)=NNc1ccc(OC(F)(F)F)cc1", "note": "[FCCP, carbonylcyanide-p-trifluoromethoxyphenylhydrazone]", "values": [{"measurement": "Concentration at which decrease of mitochondrial membrane potential exceeded the threshold", "setting": "HepaRG cells [3]", "value": 2.5, "unit": "µM"}]}
{"smiles": "C=C(C)[C@H]1Cc2c(ccc3c2O[C@@H]2COc4cc(OC)c(OC)cc4[C@@H]2C3=O)O1", "note": "[rotenone]", "values": [{"measurement": "Lipid accumulation response (in words)", "setting": "HepaRG cells [2]", "value": "increased in a dose-dependent manner"}, {"measurement": "EC50", "setting": "HepaRG cells [1]; [8]", "value": 18.9, "unit": "µM"}, {"measurement": "Concentration at which decrease of mitochondrial membrane potential exceeded the threshold", "setting": "HepaRG cells [3]", "value": 2.5, "unit": "µM"}, {"measurement": "OED", "setting": "IVIVE derived median over all positive imaging endpoints, human simulation, Table 2", "value": 0.3, "unit": "mg/kg/day"}]}
{"smiles": "O=[As][O-].[Na+]", "note": "[Sodium arsenite]", "values": [{"measurement": "Concentration at which increase of oxidative stress exceeded the threshold", "setting": "HepaRG cells [4]", "value": 25, "unit": "µM"}, {"measurement": "Concentration at which increase of number of apoptotic cells (nuclear morphology) exceeded the threshold", "setting": "HepaRG cells [5]", "value": 25, "unit": "µM"}]}
